Measurements published in patent US10253081B2, “Glucagon analogues” (Zealand Pharma A/S, priority 2012, dated 2019).
*1 amine or outer side, *2 acyl side, *3 side chain or, on linkers, in order; H or OH if unused. Where a SMILES comes first, the peptide text is derived from it. Side-chain parts run from the residue outwards. [ ]: non-standard residue; d: D form. The star is where a group is joined. γGlu = O=C(O)[C@H](CCC(=O)[*:2])N[*:1]; Palmitoyl = CCCCCCCCCCCCCCCC(=O)*; Aib = CC(C)(N)C(=O)O

How the values were obtained:
[1] = target: T1, endogenous glucagon receptor (Rattus norvegicus, UniProt P30082); assay: Agonistic activity on endogenous glucagon receptor (glycogen synthesis rate in primary rat hepatocytes); format: cell-based; details: inhibition of glycogen synthesis rate, 3 hours, read-out: EC50 GLP-1R Rat hepat.
T1 construct: Agonistic activity of the test compounds on endogenous glucagon receptor; endogenous in cells; host or cells: primary rat hepatocytes
T1 sequence (P30082 27-485): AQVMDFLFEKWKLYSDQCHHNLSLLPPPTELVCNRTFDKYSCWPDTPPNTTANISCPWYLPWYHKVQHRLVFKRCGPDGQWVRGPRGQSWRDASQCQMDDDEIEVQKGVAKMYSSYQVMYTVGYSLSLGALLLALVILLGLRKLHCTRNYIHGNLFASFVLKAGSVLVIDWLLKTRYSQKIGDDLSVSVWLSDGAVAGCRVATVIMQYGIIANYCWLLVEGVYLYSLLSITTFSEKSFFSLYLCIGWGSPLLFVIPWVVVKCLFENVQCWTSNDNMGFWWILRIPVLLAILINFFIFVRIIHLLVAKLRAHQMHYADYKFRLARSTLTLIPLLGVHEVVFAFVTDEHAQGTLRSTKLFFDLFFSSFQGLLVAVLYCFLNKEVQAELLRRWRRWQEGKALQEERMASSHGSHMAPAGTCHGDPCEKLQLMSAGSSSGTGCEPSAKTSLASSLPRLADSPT
Outline: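 Primary rat hepatocytes (40,000 cells/well, cultured 24 h) incubated 3 h with compound in KRBH buffer with 0.1% BSA, 22.5 mM glucose and D-[U14C]glucose. 14C incorporated into precipitated glycogen counted, background-subtracted and expressed as % of 0.1% DMSO vehicle (100% CTL). pEC50 from cpm versus log concentration; agonism lowers glycogen synthesis.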

[2] = target: T2, endogenous GLP-1 receptors (Mus musculus, UniProt O35659); assay: Agonistic activity on endogenous GLP-1 receptor (cAMP, murine insulinoma cell line); format: cell-based; details: intracellular cAMP, 15 minutes at 26° C.; read-out: EC50 GLP-1R (murine insulinoma cells)
T2 construct: Agonistic activity of the test compounds on endogenous GLP-1 receptors; endogenous in cells
T2 sequence (O35659 22-463): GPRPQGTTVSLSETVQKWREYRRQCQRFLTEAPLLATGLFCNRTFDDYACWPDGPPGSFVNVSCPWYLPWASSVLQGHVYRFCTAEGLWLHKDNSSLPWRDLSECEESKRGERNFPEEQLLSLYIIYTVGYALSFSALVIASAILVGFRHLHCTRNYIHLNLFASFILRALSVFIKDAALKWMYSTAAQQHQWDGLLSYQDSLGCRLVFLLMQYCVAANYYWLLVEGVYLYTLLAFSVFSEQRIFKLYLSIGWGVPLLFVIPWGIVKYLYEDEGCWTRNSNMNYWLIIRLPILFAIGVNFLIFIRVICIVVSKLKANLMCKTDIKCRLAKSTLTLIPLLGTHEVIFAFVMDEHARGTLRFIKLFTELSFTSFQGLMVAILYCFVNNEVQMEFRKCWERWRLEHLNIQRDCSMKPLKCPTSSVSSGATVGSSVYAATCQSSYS
Outline: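 Murine insulinoma cells were exposed 15 min at 26° C in KRBH with 0.1% DMSO to compound or GLP-1 ([…]), then cAMP was measured by AlphaScreen against a standard curve, in quadruplicate. pEC50 came from curve fits; % CTL was normalised to the maximal GLP-1 cAMP response.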

[3] = Oral glucose tolerance test (OGTT); format: in vivo, C57BL/6J mice; details: blood glucose AUC 0-120 min, 10 nmol/kg s.c. 4 h before oral glucose 2 g/kg
Outline: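 Male C57BL/6J mice (n=7) were fasted for 10 h and given peptide at 10 nmol/kg s.c. in phosphate-buffered saline 4 h before an oral glucose bolus of 2 g/kg; controls got vehicle. Tail-blood glucose was read by glucometer up to 120 min, and AUC was computed by the trapezoidal rule without baseline correction.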

CCCCCCCCCCCCCCCC(=O)N[C@@H](CCC(=O)NCCCC[C@H](NC(=O)[C@H](CCC(=O)O)NC(=O)[C@H](CC(=O)O)NC(=O)[C@H](CC(C)C)NC(=O)[C@H](Cc1ccc(O)cc1)NC(=O)[C@H](CCCCN)NC(=O)[C@H](CO)NC(=O)[C@H](Cc1ccc(O)cc1)NC(=O)[C@H](CC(=O)O)NC(=O)[C@H](CO)NC(=O)[C@@H](NC(=O)[C@H](Cc1ccccc1)NC(=O)[C@@H](NC(=O)CNC(=O)[C@H](CCC(N)=O)NC(=O)C(C)(C)NC(=O)[C@@H](N)Cc1c[nH]cn1)[C@@H](C)O)[C@@H](C)O)C(=O)N[C@@H](CCCNC(=N)N)C(=O)N[C@@H](C)C(=O)N[C@@H](CCCCN)C(=O)N[C@@H](CC(=O)O)C(=O)N[C@@H](Cc1ccccc1)C(=O)N[C@H](C(=O)N[C@@H](CCC(=O)O)C(=O)N[C@@H](Cc1c[nH]c2ccccc12)C(=O)N[C@@H](CC(C)C)C(=O)N[C@@H](CC(C)C)C(=O)N[C@@H](CO)C(=O)N[C@@H](C)C(=O)O)[C@@H](C)CC)C(=O)O [Compound 14, H-H-Aib-QGTFTSDYSKYLDE-K(Hexadecanoyl-isoGlu)-RAKDFIEWLLSA-OH] (H-H[Aib]QGTFTSDYSKYLDEK([γGlu-Palmitoyl])RAKDFIEWLLSA-OH)
EC50 [1]: 100 pM | EC50 [2]: 720 pM | AUC (% Ctrl) [3]: 59 % Ctrl

CCCCCCCCCCCCCCCC(=O)N[C@@H](CCC(=O)NCCCC[C@H](NC(=O)[C@H](CCC(=O)O)NC(=O)[C@H](CC(=O)O)NC(=O)[C@H](CC(C)C)NC(=O)[C@H](Cc1ccc(O)cc1)NC(=O)[C@H](CCCCN)NC(=O)[C@H](CO)NC(=O)[C@H](Cc1ccc(O)cc1)NC(=O)[C@H](CC(=O)O)NC(=O)[C@H](CO)NC(=O)[C@@H](NC(=O)[C@H](Cc1ccccc1)NC(=O)[C@@H](NC(=O)CNC(=O)[C@H](CCC(N)=O)NC(=O)C(C)(C)NC(=O)[C@@H](N)Cc1c[nH]cn1)[C@@H](C)O)[C@@H](C)O)C(=O)N[C@@H](C)C(=O)N[C@@H](C)C(=O)N[C@@H](CCCCN)C(=O)N[C@@H](CC(=O)O)C(=O)N[C@@H](Cc1ccccc1)C(=O)N[C@H](C(=O)N[C@@H](CCC(=O)O)C(=O)N[C@@H](Cc1c[nH]c2ccccc12)C(=O)N[C@@H](CC(C)C)C(=O)N[C@@H](CCC(=O)O)C(=O)N[C@@H](CO)C(=O)N[C@@H](C)C(N)=O)[C@@H](C)CC)C(=O)O [Compound 15, H-H-Aib-QGTFTSDYSKYLDE-K(Hexadecanoyl-isoGlu)-AAKDFIEWLESA-NH2]
EC50 [1]: 170 pM | EC50 [2]: 300 pM | AUC (% Ctrl) [3]: 42 % Ctrl

CCCCCCCCCCCCCCCC(=O)N[C@@H](CCC(=O)NCCCC[C@H](NC(=O)[C@H](CO)NC(=O)[C@H](CC(=O)O)NC(=O)[C@H](CC(C)C)NC(=O)[C@H](Cc1ccc(O)cc1)NC(=O)[C@H](CCCCN)NC(=O)[C@H](CO)NC(=O)[C@H](Cc1ccc(O)cc1)NC(=O)[C@H](CC(=O)O)NC(=O)[C@H](CO)NC(=O)[C@@H](NC(=O)[C@H](Cc1ccccc1)NC(=O)[C@@H](NC(=O)CNC(=O)[C@H](CCC(N)=O)NC(=O)C(C)(C)NC(=O)[C@@H](N)Cc1c[nH]cn1)[C@@H](C)O)[C@@H](C)O)C(=O)N[C@@H](C)C(=O)N[C@@H](C)C(=O)N[C@@H](CCC(=O)O)C(=O)N[C@@H](CC(=O)O)C(=O)N[C@@H](Cc1ccccc1)C(=O)N[C@H](C(=O)N[C@@H](CCC(=O)O)C(=O)N[C@@H](Cc1c[nH]c2ccccc12)C(=O)N[C@@H](CC(C)C)C(=O)N[C@@H](CCC(=O)O)C(=O)N[C@@H](CO)C(=O)N[C@@H](C)C(N)=O)C(C)C)C(=O)O [Compound 16, H-H-Aib-QGTFTSDYSKYLDS-K(Hexadecanoyl-isoGlu)-AAEDFVEWLESA-NH2] (H-H[Aib]QGTFTSDYSKYLDSK([γGlu-Palmitoyl])AAEDFVEWLESA-NH2)
EC50 [1]: 1850 pM | EC50 [2]: 330 pM | AUC (% Ctrl) [3]: 44 % Ctrl
